In BindingDB's records for PubMed 3549712 (University of Chicago, 1987) one finds Kd data, which are given here for 20 compounds.

The test deals with Trp operon repressor (Escherichia coli (strain K12), UniProt P0A881). Kind of test: Binding Assay. From the text: Binding assay of L-trptophan and analogues to trp aporepressor

One may read the Kd as the free concentration of one partner at which half of the binding sites on the other are occupied at equilibrium, for simple one-to-one binding. A low value points to higher affinity. `NC(=O)C(N)Cc1c[nH]c2ccccc12` [L-Tryptophanamide, 9] registered a Kd of 27.7 µM. This lies in the double-digit micromolar range.
For `NCCc1c[nH]c2ccccc12` [Tryptamine, 15] the value was 41.1 µM.
Compound `NC(Cc1c[nH]c2ncccc12)C(=O)O` [7-Aza-L-tryptophan, 21] displayed an equilibrium dissociation constant (Kd) of 466 µM.
For `NC(Cc1ccccc1)C(=O)O` [L-Phenylalanine, 23] the value was > 3000 µM; for `NC(Cc1c[nH]c2ccc(O)cc12)C(=O)O` [5-Hydroxy-L-tryptophan, 22], 2840 µM.
As for `Cn1cc(CC(N)C(=O)O)c2ccccc21` [1-Methyl-L-tryptophan, 8], binding was characterised by a dissociation constant (Kd) of 26.4 µM.
For `O=C(O)CCCc1c[nH]c2ccccc12` [Indole-3-butyric acid, 3] the value was 5.51 µM; for `c1ccc2c(c1)CCN2` [Indoline, 19], 174 µM; for `Cc1ccc2[nH]cc(CCN)c2c1` [5-Methyl-tryptamine, 10], 28.8 µM.
The compound `O=C(O)Cc1c[nH]c2ccccc12` [Indole-3-acetic acid, 16] returned a Kd of 72.9 µM. This Kd is about 2.5-fold higher than that of the compound before.
For `O=C(O)/C=C/c1c[nH]c2ccccc12` [3-Beta-Indole-acrylic acid (Tran), 1], the Kd worked out at 0.516 µM.
Turning to `O=CNC(Cc1c[nH]c2ccccc12)C(=O)O` [N-Formyl-L-tryptophan, 18], binding was characterised by a dissociation constant (Kd) of 117 µM.
In the case of `OCCc1c[nH]c2ccccc12` [Tryptaphol, 6] it was 23.3 µM; in that of `COc1ccc2[nH]cc(CC(N)C(=O)O)c2c1` [5-Methoxyu-L-tryptophan, 11], 30.7 µM; in that of `Cc1ccc2[nH]cc(CC(N)C(=O)O)c2c1` [5-Methyl-L-tryptophan, 2], 3.25 µM.
Take `O=C(O)C(O)Cc1c[nH]c2ccccc12` [L-Indole-3-lactic acid, 13]: the Kd came to 35.2 µM.
For `c1ccc2[nH]ccc2c1` the value was 25.1 µM; for `O=C(O)CCc1c[nH]c2ccccc12` [Indole-3-propionic acid, 4], 9.74 µM; for `COC(=O)C(N)Cc1c[nH]c2ccccc12` [L-Tryptophan methyl ester, 14], 37.1 µM.
For `NC(Cc1c[nH]c2cc([N+](=O)[O-])ccc12)C(=O)O` [6-Nitro-L-tryptophan, 17] the value was 75.6 µM.
